The values below come from ChEMBL document CHEMBL3507680, “University of Dundee, Gates Library screen for HepG2 cell viability”.

The data set is described as follows: Human HepG2 cell viability assay in 384 well format. In kind it is toxicity, cell-based. More on the design: dose 125 nL, time 70.5 hour; concentration not given beside the values. To be noted: HepG2 cells, read-out: Inhibition.
For the molecule `CC(Nc1nc(-c2ccccc2)nc2c1CCNCC2)c1nccs1` (stereo not drawn), the cytotoxicity at 70.5 h came out at 2.31%.
In the case of `CN(C)Cc1nc(-n2cnc(C(=O)NCC3CC3)c2)n2ccccc12`, the cytotoxicity at 70.5 h is -3.22%.
Next, `c1cncc(CN2CCc3ncnc(C4CCOC4)c3CC2)c1` (stereo not drawn): 22.8%.
The same measure for `CC(C)C(NC(=O)C1CC1)c1cc(O)nc(-c2cccnc2)n1` (stereo not drawn): -0.322%.
Take `Cc1ccc2[nH]c(C3CCN(C)CC3)nc2c1`: the cytotoxicity at 70.5 h was 12.7%.
The same measure for `COCC(C)Nc1ccc(-c2nc(Cc3ccc(F)cc3)no2)cn1` (stereo not drawn): 27.4%.
Next, `O=c1cc(N2CCNCC2)cnn1CCCn1cccn1`: -9.24%.
The same measure for `COc1cc(C(=O)N2CCCC2CC(=O)c2cnn(C)c2)ccc1F` (stereo not drawn): 8.93%; for `Cc1cc(C)n(CC2CCCN2C(=O)c2ccc(NC3CC3)nc2)n1` (stereo not drawn): 20.6%.
Regarding `COCCNC(=O)c1cc(F)ccc1NS(C)(=O)=O`, the cytotoxicity at 70.5 h was -1.48%.
Next, `CN(C)C(=O)C1CCN(C2CCN(CC3CCC3)CC2)CC1`: -1.7%.
Turning to `O=C(C1CCOC1)N1CCN(CCn2cccn2)c2ncccc2C1` (stereo not drawn), the cytotoxicity at 70.5 h is -1.8%.
The same measure for `O=S1(=O)C[C@@H]2[C@H](C1)N(Cc1ncc[nH]1)CCN2C/C=C/c1ccccc1`: -7.45%.
The same measure for `c1cnc2c(c1)CN(C1CCOC1)CCN2CC1CC1` (stereo not drawn): -8.62%.
The same measure for `COCc1cc(CNCc2c(C)n(CC(C)C)c3ccccc23)n[nH]1`: -11%; for `CCc1c(C)nc(-n2nc(-c3cccs3)cc2N)[nH]c1=O`: -5.27%.
As to `COCCN1CCCC12CCN(Cc1cncn1C)CC2`, the cytotoxicity at 70.5 h was -1.01%.
As for `O=C(NC1CCCc2c1[nH]c1ccc(F)cc21)c1n[nH]c2c1CCCC2` (stereo not drawn), the cytotoxicity at 70.5 h worked out at 27%.
Consider `O=C(O)c1c(-c2ccncc2)ncc2c1CCN(CC1CCOC1)C2` (stereo not drawn), for which the cytotoxicity at 70.5 h was -4.36%.
`COCc1ncn(Cc2nc(-c3ccco3)oc2C)n1`: the cytotoxicity at 70.5 h came to 6.06%.
Next, `COc1ncccc1C(=O)N1CCN(C(=O)Cc2ccccn2)CC1`: 6.6%; `CCn1ncc2c1CCCC2NCC1=Cc2ccccc2OC1` (stereo not drawn): -12.8%; `CC(C)(C)OC(=O)N1CCCc2ccc(NCc3ccon3)cc21`: -4.98%.
As to `CCC(CNC(=O)c1ccccc1OC)N1CCc2ccccc2C1` (stereo not drawn), the cytotoxicity at 70.5 h amounted to 7.61%.
The same measure for `O=C(CCn1cnc2cc(F)c(F)cc21)N1CCN(C2CC2)CC1`: -5.93%; for `CNC(=O)[C@@H]1C[C@@H](NC(=O)c2ccc(OC)o2)CN1Cc1sccc1C`: 1.26%.
Consider `O=C(CSC1CCc2ccccc2NC1=O)NCCO` (stereo not drawn), for which the cytotoxicity at 70.5 h was determined as 2.81%.
The same measure for `CN(C)C(=O)c1cccc(C2CNCCN2C)c1` (stereo not drawn): -4.31%; for `COc1ccc(C(C)n2ccnc2-c2cc3n(n2)CCCNC3)cc1F` (stereo not drawn): -0.853%.
Next, `Cc1nc(C)n(CC2CCCN2Cc2cn3ccccc3c2C#N)n1` (stereo not drawn): -6.14%.
Next, `CC(=O)NC[C@]1(O)CCN(C(=O)c2ccc3c(c2)CCC3)C[C@H]1O`: -3.52%; `COc1cc(F)ccc1N1CCN(Cc2nnc(C3CC3)o2)CC1`: -14.9%; `CC(C)Cc1ncc2c(n1)CN(C(=O)c1ccc(CN3CCCC3)o1)C2`: -7.27%.
Consider `CCn1cc(NS(=O)(=O)c2ccc(Br)s2)c(C(=O)NCC(C)C)n1`, for which the cytotoxicity at 70.5 h was -0.598%.
Next, `CC(=O)c1ccc(N2CCCC(CO)(Cc3ccccc3F)C2)nc1` (stereo not drawn): 20.4%.
Next, `COCCN1CCO[C@H]2CN(Cc3cc[nH]n3)C[C@H]21`: -7.3%.
The same measure for `O=C(C1CCCC1)N1C[C@H]2CNC[C@H]2C1`: -8.49%.
For `COCc1nc(N(C)C)ncc1C(=O)Nc1ccc(Cl)cc1`, the cytotoxicity at 70.5 h was -11.1%.
Consider `CCn1cc(S(=O)(=O)NC2CCCC2)cn1`, for which the cytotoxicity at 70.5 h was -11.8%.
The same measure for `CCN(CC)c1ccc(CNC(=O)c2ccccn2)cn1`: 10.8%; for `Cc1ccc(N2CCC3(CCC(=O)N3)CC2)nn1`: -10%; for `COc1ccc(-c2cc(C3CCCCCN3S(C)(=O)=O)on2)cc1` (stereo not drawn): -2.6%.
In the case of `Cc1nc(N2CCOCC2)ncc1-c1cc(O)nc(N2CCCCC2)n1`, the cytotoxicity at 70.5 h was found to be 14.1%.
Turning to `CN(CCc1ccccn1)Cc1nccn1Cc1ccccc1`, the cytotoxicity at 70.5 h was 11.8%.
The same measure for `Cc1ccc(-c2n[nH]cc2CNCC2CCN(CC(C)O)CC2)cc1` (stereo not drawn): -1.53%; for `COc1ccc(CNC(=O)N2CCOCC2C2CC2)c(C)c1` (stereo not drawn): -6.07%.
The same measure for `CC[C@H]1CN(S(=O)(=O)c2ccc(OC)cc2)CC[C@H]1CC(=O)O`: -9.14%; for `CC(C)N1CCC(c2cc(C(F)(F)F)n3ccnc3n2)CC1`: 12.6%.
As for `CCc1ccccc1CN1CCN(Cc2ncc[nH]2)[C@H]2CS(=O)(=O)C[C@H]21`, the cytotoxicity at 70.5 h is -3.46%.
The same measure for `Cc1noc([C@H]2C[C@H]3OCC[C@H]3N(Cc3cccs3)C2)n1`: -3.05%; for `CN(C)c1nc2ncc(Cl)cc2cc1C#N`: 22%.
The same measure for `Fc1ccc(-c2nc(CN3CCCC3Cn3cncn3)co2)cc1F` (stereo not drawn): 17.9%.
Turning to `NC(=O)C1CCN(C(=O)c2cccc(CN3CCOCC3)c2)CC1`, the cytotoxicity at 70.5 h stood at 8.77%.
Next, `CC(C)c1nccc(CN2CCC(c3nc4ccccc4n3C)CC2)n1`: -20.5%; `O=C(NCCc1ccccn1)C1CC(=O)N(CC(F)(F)F)C1` (stereo not drawn): -2.42%; `Cc1cccc(NS(=O)(=O)c2ccc(C#N)nc2)c1C#N`: -4.92%.
In the case of `Cc1nc(CN2CCOC(Cn3cccn3)C2)nc2ccccc12` (stereo not drawn), the cytotoxicity at 70.5 h is -12.1%.
The same measure for `CC(NCc1cccc(NC(=O)C2CCCCC2)c1)c1cnn(C)c1` (stereo not drawn): -9.44%; for `O=C(c1ccccc1F)N1C[C@H]2CCC[C@@]2(COCc2ccncc2)C1`: -0.88%; for `CC(C)CN1C[C@@H](C(=O)O)C[C@@H](C(=O)NCc2ccncc2)C1`: -2.12%.
The same measure for `CCc1cc(N2CCC(NCCSc3nnnn3C)CC2)nc(C)n1`: -0.17%.
As to `CN(CCc1ccccn1)CCc1nccs1`, the cytotoxicity at 70.5 h was -8.22%.
The same measure for `COc1ccc(Cl)cc1CCNC(=O)NCc1ncnn1C`: -13.1%; for `CCC1CCC(N(Cc2cc(=O)n(C)c(=O)n2C)C2CC2)CC1` (stereo not drawn): -5.27%.
Next, `Cc1cccc(CNC[C@H]2Cn3cc(-c4ccccc4)nc3CO2)n1`: -7.12%.
As for `CC(C)N1CC2(CCCN(c3ccccn3)C2)CCC1=O` (stereo not drawn), the cytotoxicity at 70.5 h is -6.62%.
The same measure for `Cc1ccsc1CN(C)c1cc(N2CCOCC2)ncn1`: -2.06%.
As for `COc1ccc(C2(C(=O)N3CC[C@@]4(O)CCNC[C@H]4C3)CCCC2)cc1`, the cytotoxicity at 70.5 h came out at 17.8%.
The same measure for `CCc1n[nH]c(C2CN(C(=O)c3nc(C)n4ccccc34)CCO2)n1` (stereo not drawn): -20.1%; for `CN(Cc1nnc(C2CC2)n1C)C1CCN(Cc2ccc(F)cc2)C1` (stereo not drawn): -6.24%; for `Cc1noc(C)c1CN(C)CC1CCCN1c1cccnn1` (stereo not drawn): -7.19%.
Next, `Cn1cc(NC(=O)c2cccc(-n3cnnn3)c2)cn1`: -13.6%; `Cn1ncc2c(N[C@@H]3C[C@@H]4CC[C@H]3C4)nc(-c3ccncc3)nc21`: -2.05%.
The same measure for `O=C(C1CCCc2[nH]ncc21)N1CCCC1` (stereo not drawn): -4.89%.
As for `Cc1ocnc1C(=O)N1CC[C@@]2(O)CCN(C(=O)N3CCCC3)C[C@H]2C1`, the cytotoxicity at 70.5 h is -4.39%.
Take `Cc1cnn(CC2CN(Cc3cccc(C(N)=O)c3)CCO2)c1` (stereo not drawn): the cytotoxicity at 70.5 h was -9.19%.
Turning to `NCC1(c2cccc(F)c2)CCOCC1`, the cytotoxicity at 70.5 h stood at 19.1%.
The same measure for `Cc1cc(C)n(Cc2ccc(-c3noc(C(=O)NCCO)n3)cc2)n1`: -18.6%; for `Cc1ccc(NC2CCN(C(=O)c3cc(C)no3)CC2)nn1`: 0.395%; for `COc1ncccc1CNC(=O)c1cc(Cl)ccn1`: -8.01%.
Next, `COCC1CN(CC2CC2)Cc2ncn(CC3CC3)c21` (stereo not drawn): 2.41%.
Next, `CN(C)c1ncccc1C(=O)N1CCCC1Cn1cccn1` (stereo not drawn): -5.68%; `O=C(Cc1cccc(F)c1)N1CCN2C[C@H](Oc3cncnc3)C[C@H]2C1`: -2.68%; `O=C1NCCCCC1NC(=O)C1(c2cccc(Cl)c2)CC1` (stereo not drawn): -0.123%.
Turning to `CCN(CC)C(=O)[C@@H]1C[C@H](NC(=O)c2cccn2C(C)C)CN1C`, the cytotoxicity at 70.5 h is -9.19%.
Next, `COCC1CN(Cc2cc(C)on2)Cc2cn(CC3CC3)nc21` (stereo not drawn): -1.87%; `NC(=O)C1CCN(CCCc2ccc(C(F)(F)F)cc2)CC1`: 3.34%; `COc1ccc(C(=O)CCC(=O)NCc2ncc(C)s2)cc1F`: -9.89%.
The same measure for `O=C(Cn1ccnc1)N1C[C@@H]2CC[C@H](Oc3ccc(Cl)cc3)[C@@H]2C1`: 0.299%.
Next, `Cc1nc(CN2CC3(CCN(c4ncc(F)cn4)C3)CC2=O)cs1` (stereo not drawn): -0.115%; `CC(C)NC(=O)N1C[C@H]2C[C@H](C(=O)NCc3ccccc3)[C@@H](C1)O2`: -5.16%; `CC(Cn1cccn1)NCc1csc(-c2ccccc2)n1` (stereo not drawn): -3.84%.
In the case of `O=c1cc(N2CCCCC2)cnn1CC(O)C(F)(F)F` (stereo not drawn), the cytotoxicity at 70.5 h is -8.52%.
For `Cc1nc(C)c(C(=O)Nc2cnn(CC(=O)NC3CCCC3)c2)s1`, the cytotoxicity at 70.5 h was determined as 14.1%.
With `Cc1cc(C)c2cc(CNCc3ccc(C)o3)c3nn(C)c(=O)n3c2c1`, the cytotoxicity at 70.5 h was -5.87%.
The same measure for `Cc1cc(N2CCCN(C(=O)Cc3cc(F)cc(F)c3)CC2)ccn1`: -1.71%.
Turning to `Cc1nn(C)c(N(C)C)c1CNCc1ccc(OCC(N)=O)cc1`, the cytotoxicity at 70.5 h was found to be 0.111%.
The same measure for `O=C(Cn1cc(Cl)cn1)N1CCCC(c2cc3ccccc3cn2)C1` (stereo not drawn): 23.4%.
